# In US7285678B2, “Purification of 2-nitro-4-methylsulphonylbenzoic acid” (Syngenta Limited, priority 2001, dated 2007):
# Test: Ames test
# Format: cell-based
smiles,measurement,setting,value
"CS(=O)(=O)c1ccc(C(=O)C2C(=O)CCCC2=O)c([N+](=O)[O-])c1 [Mesotrione, 2-(4-methylsulfonyl-2-nitrobenzoyl)cyclohexane-1,3-dione]",Ames test,"Mesotrione made from NMSBA purified by Example 1 (one pot: filtration, activated carbon, hydrolysis at pH 13, crystallization)",negative
same,Ames test response,"Mesotrione made from NMSBA purified by Example 2, both fractions (with carbon and without carbon)",negative
same,Ames test,"Mesotrione made from NMSBA purified by Example 3 (20, 30 and 40% solids loading)",negative
same,Ames test response,"Mesotrione made from NMSBA purified by Example 4 double isolation, fractions (A) and (B)",negative
same,Ames test result,mesotrione made by the known process from NMSBA starting material containing impurities (not purified),positive
